Results as given in patent US20050096392A1, “Use of creatine pyruvate for increasing stamina during highly intensive intermittent physical exertion” (priority 2002, published 2005).

Experiments:
lower arm musculature [1] = test: Intermittent test with the lower arm musculature, blood tests and acid-base status; type: in vivo, human
Protocol: (§1) In a double-blind study, creatine pyruvate (A) and placebo (B) were tested. The male experimental subjects (n=32; age: 18 to 32) were divided into groups, each of n=16, so that the maximum oxygen consumption per kilogram of body weight was on average the same in the groups, and the types of sport undertaken were usually distributed the same as far as possible. This led to the fact that the mean strength in the intermittent studies was not the same. The test subjects of group A were administered 5.0 g of creatine pyruvate per day over a period of 28 days. The initial test (IT) was carried out on the 1st day, and the closing test (CT) on the 29th day.
The arm of the seated test subjects is positioned extended (horizontally) at the side at shoulder height. The hand lies on an adjustable-weight gripper (stroke length: 3 cm). The arm is supported at the elbow. The test subjects must perform highly intensive intermittent work, for which they compress the adjustable-weight gripper at the maximum possible frequency. The weight in the basket is 80% of the maximum weight achieved in a preliminary test in which the load, starting at 7.5 kg, is increased by 2.5 kg every 3 minutes. The contraction frequency is 24/min. The maximum weight is reached when the 3 cm stroke length can no longer be overcome. Blood is taken from the cubital vein on the working arm. The skin blood flow is reduced by cooling. […]

lower arm musculature [2] = test: Intermittent test with the lower arm musculature, mechanical parameters; type: in vivo, human
Protocol: as §1
The arm of the seated test subjects is positioned extended (horizontally) at the side at shoulder height. The hand lies on an adjustable-weight gripper (stroke length: 3 cm). The arm is supported at the elbow. The test subjects must perform highly intensive intermittent work, for which they compress the adjustable-weight gripper at the maximum possible frequency. The weight in the basket is 80% of the maximum weight achieved in a preliminary test in which the load, starting at 7.5 kg, is increased by 2.5 kg every 3 minutes. The contraction frequency is 24/min. The maximum weight is reached when the 3 cm stroke length can no longer be overcome. Blood is taken from the cubital vein on the working arm. The skin blood flow is reduced by cooling. Blood was taken in each case before and after the 1st, 2nd, 6th, 9th and 10th period.
Via an inductive distance measurer on the adjustable-weight gripper, the stroke length of the weight basket was measured. From the signal, 4 measurements can be obtained. • 1. Contraction rate • 2. Stroke length • 3. Duration of the total contraction • 4. Integral of stroke length over time
The force is the mean force during the shortening phase, not the point-measurement maximum force. It is only the force which was developed additionally to the force necessary to overcome the force of gravity. In addition, the relaxation rate and the contraction frequency were determined. The evaluation was started with the fourth contraction. Thereafter, each contraction was evaluated over 12 seconds. The mechanical parameters were determined in the 1st, 2nd, 6th and 9th interval.

[3] = parameters: species or system human; details: in vivo
Protocol: as §1, with “day. In the morning between 8 and 11 o'clock fasted blood sampling, record of anthropometric data; standardized breakfast; then intermittent test of the lower arm musculature.” for “day.”

[4] = Double-blind study, anthropometric data; type: in vivo, human
Protocol: as §1, with “day. In the morning between 8 and 11 o'clock fasted blood sampling, record of anthropometric data; standardized breakfast; then intermittent test of the lower arm musculature. […] The circumference of the thickest part of the lower arm increased in group A (p<0.005).” for “day.”

[5] = administration of creatine pyruvate
[6] = highly intensive intermittent work, 80% of maximum weight, analysis of variance, p<0.01
[7] = closing test, day 29, after 5.0 g per day over 28 days
[8] = initial vs closing test, 5.0 g per day over 28 days
[9] = initial vs closing test, p<0.005

Substance: creatine pyruvate
- Overacidification of muscle tissue in highly intensive intermittent exertion (lower arm musculature [1]; [5]): does not occur, or only occurs to a very slight extent
- Rise of maximum values during exertion (parameter not named at the place) (lower arm musculature [1]; t test for paired random samples, p<0.002): significantly lower rise
- Muscle fatigue under highly intensive intermittent exertion (lower arm musculature [2]; [5]): significant reduction in muscle fatigue
- Relaxation rate (lower arm musculature [2]; highly intensive intermittent work, 80% of maximum weight): showed a tendency to increase
- Power calculated from the shortening rate (lower arm musculature [2]; highly intensive intermittent work, 80% of maximum weight, analysis of variance, p<0.005): increased in all intervals
- Contraction frequency (lower arm musculature [2]; [6]): increased in all intervals
- Force (lower arm musculature [2]; [6]): increased in all intervals
- Performance in highly intensive exertion (lower arm musculature [2]; short exertion and final intervals): significant increase in performance
- Change of HB [3]: not different
- Change of Hct [3]: not different
- Change of LDL cholesterol [3]: just above the level of significance
- Change of leukocyte number [3]: no difference
- Change of number of erythrocytes [3]: decreased significantly
- Change of uric acid concentration [3]: significant decrease
- Creatinine, CT mean [3]: 1.19
- Creatinine, IT mean [3]: 1.07 mg/dL
- Effect on fat metabolism at rest [3]: no effect
- Effects on kidney and liver function and fat metabolism parameters [3]: no adverse effects
- Erythrocytes, CT mean [3]: 4.96
- Erythrocytes, IT mean [3]: 5.3 10^6/µL
- Hb, CT mean [3]: 15.4 g/dL
- Hb, IT mean [3]: 15.56
- Hct, CT mean [3]: 45.13
- Hct, IT mean [3]: 45.5%
- Leukocytes, CT mean [3]: 9386.67
- Leukocytes, IT mean [3]: 8980 µL⁻¹
- PT, CT mean [3]: 6.20
- PT, IT mean [3]: 5.40
- Urea, CT mean [3]: 30.00
- Urea, IT mean [3]: 34.07
- Uric acid, CT mean [3]: 5.29 mg/dL
- Uric acid, IT mean [3]: 5.64 mg/dL
- BIA fat measurement, CT mean [4, 7]: 16.63 kg
- BIA water measurement, CT mean [4, 7]: 47.39 kg
- Body fat (skinfold), CT mean [4, 7]: 11.59%
- Body weight, CT mean [4, 7]: 83.20 kg
- Circumference of lower elbow, CT mean [4, 7]: 29.62 cm
- Circumference of thickest point of the arm, CT mean [4, 7]: 29.67 cm
- BIA fat measurement, IT mean ([4]; initial test, day 1): 16.69 kg
- BIA water measurement, IT mean ([4]; initial test, day 1): 46.64 kg
- Body fat (skinfold), IT mean ([4]; initial test, day 1): 11.33%
- Circumference of lower elbow, IT mean ([4]; initial test, day 1): 28.94 cm
- Circumference of thickest point of the arm, IT mean ([4]; initial test, day 1): 29.01 cm
- Body weight, IT mean ([4]; initial test, day 1, group A, 5.0 g per day over 28 days): 81.70 kg
- Change of body fat content (skinfold thickness and BIA) [4, 8]: no change in body fat content
- Change of body weight [4, 8]: increased significantly
- Change of body fat content (skinfold thickness and BIA) ([4]; initial vs closing test, 5.0 g per day over 28 days, listed as A): remained the same
- Change of body H2O ([4]; initial vs closing test, one-sided test, p<0.05): increases in body H2O were significant
- Change of circumference at the epicondyles [4, 9]: The same applied
- Change of circumference of the thickest part of the lower arm [4, 9]: increased
